Experimental findings from US8691824B2, “Certain kynurenine-3-monooxygenase inhibitors, pharmaceutical compositions, and methods of use thereof” (CHDI Foundation, Inc., priority 2008, dated 2014) are described below.

T1 sequence (Q91WN4 whole entry): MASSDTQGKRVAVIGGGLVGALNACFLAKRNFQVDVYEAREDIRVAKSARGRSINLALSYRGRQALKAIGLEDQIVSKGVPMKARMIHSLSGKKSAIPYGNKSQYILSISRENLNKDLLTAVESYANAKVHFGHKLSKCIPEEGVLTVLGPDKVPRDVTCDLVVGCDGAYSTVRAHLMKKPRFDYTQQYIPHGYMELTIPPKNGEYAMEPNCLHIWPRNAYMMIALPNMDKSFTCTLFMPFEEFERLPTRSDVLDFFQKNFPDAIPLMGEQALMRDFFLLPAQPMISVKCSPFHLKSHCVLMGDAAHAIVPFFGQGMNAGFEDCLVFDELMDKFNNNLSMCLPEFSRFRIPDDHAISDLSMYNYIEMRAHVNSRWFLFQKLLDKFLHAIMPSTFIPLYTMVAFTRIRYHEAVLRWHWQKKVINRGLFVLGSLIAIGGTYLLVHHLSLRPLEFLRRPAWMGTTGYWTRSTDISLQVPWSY

The assay has as its target T1, KMO mouse enzyme (Mus musculus, UniProt Q91WN4).
T1 construct: KMO enzyme prepared at Evotec from mouse liver (4-6 weeks old) via mitochondria isolation; from tissue; host or cells: mouse liver (4-6 weeks old), mitochondria isolation
Nature of the assay: L-Kynurenine hydroxylation to 3OH-KYN by LC/MS, mouse liver mitochondrial KMO. The conditions noted are these: compound at 10 μM, read-out: INH.Mouse @ 10 μM. In kind it is biochemical. How it is done: A method of monitoring L-Kynurenine (KYN) hydroxylation to form 3-Hydroxy-Kynurenine (3OH-KYN) by LC/MS is described. Product is quantified by multiple reaction monitoring (MRM method).
• Compound: Stock concentrations: 10 mM in 100% DMSO • Enzyme: KMO enzyme prepared at Evotec from mouse liver (4-6 weeks old) via mitochondria isolation as described in the literature • Substrate: L-Kynurenine (Sigma: Cat# K3750, stock concentration: 10 mM in 100 mM potassium phosphate buffer, pH 7.4) Assay Conditions: • Buffer: 100 mM potassium phosphate, pH 7.4, 200 μM NADPH, 0.4 U/ml G6P-DH (Glucose 6-phosphate Dehydrogenase), 3 mM G6P (D-Glucose 6-phosphate) • Assay Volume: 40 μl • Plate Format: 384 well plate, transparent (Matrix) • Read-Out: product (3OH-KYN) quantification using product specific MRM • Reader: LC/MS/MS Assay Protocol: • prepare serial dilution (factor 3) of compound in 100% DMSO (top concentration=10 mM, 100% DMSO) • [8 points: 10 mM; 3.33 mM; 1.11 mM; 0.37 mM; 0.12 mM; 0.04 mM; 0.0137 mM; 0.0045 mM, 0.0015 mM] • prepare […] concentrated solution of each compound concentration (top concentration 300 μM, 3% DMSO) in assay buffer • [concentrations: 300 μM; 100 μM; 33.3 μM; 11.1 μM; 3.70 μM; 1.23 μM; 0.41 μM; 0.137 μM] • prepare substrate (10 mM) at concentration of 1 mM in assay buffer • assay mix: 4 μl compound/well of each concentration+24 μl assaybuffer/well+8 μl KMO mouse enzyme+4 μl 1 mM substrate (final concentration=100 μM) • [final compound top concentration: 30 μM; 0.3% DMSO] • [final compound bottom concentration: 0.0137 μM; 0.3% DMSO] • positive control: 4 μl 50 μM FCE28833 in assay buffer, 0.5% DMSO [final assay concentration=5 μM]+24 μl assaybuffer/well+8 μl KMO mouse enzyme+4 μl 1 mM substrate [final concentration=100 μM] • negative control: 28 μl assay buffer/well+8 μl KMO mouse enzyme+4 μl 1 mM substrate [final concentration=100 μM] • incubate 40 min at RT • add 40 μl/well 10% trichloro acetic acid in water to stop the assay and precipitate protein • centrifuge plate for 3 min at 4000 rpm • product detection by LC/MS (injection of 20 μl/well, 2 fold overfill of the 10 μl sample loop) Data Analysis:
IC50's are calculated using automated fitting algorithm (A+Analysis).
Using procedures similar to those described herein, the following compounds were assayed for activity.
For the compound `O=C(O)CC1CON=C1c1cccc(Cl)c1` (stereo not drawn) [3-(3-Chloro-phenyl)-4,5-dihydro-isoxazol-4-yl]-acetic acid], the inhibition at 10 µM is 106%.
The figure for `O=C(CC1CON=C1c1ccc(Cl)c(Cl)c1)Nc1cncnc1` (stereo not drawn) [2-[3-(3,4-Dichloro-phenyl)-4,5-dihydro-isoxazol-4-yl]-N-pyrimidin-5-yl-acetamide] is 82.7%.
As to `COC(=O)CC1CC(c2ccc(Cl)c(Cl)c2)=NO1` (stereo not drawn) [[3-(3,4-Dichloro-phenyl)-4,5-dihydro-isoxazol-5-yl]-acetic acid methyl ester], the inhibition at 10 µM came to 88.4%.
With `O=C(O)CC1CON=C1c1ccc(Cl)c(Cl)c1` (stereo not drawn) [[3-(3,4-Dichloro-phenyl)-4,5-dihydro-isoxazol-4-yl]-acetic acid] the figure was 101%; with `NC(=O)CC1CON=C1c1ccc(Cl)c(Cl)c1` (stereo not drawn) [2-[3-(3,4-Dichloro-phenyl)-4,5-dihydro-isoxazol-4-yl]-acetamide], 60.4%; with `O=C(CC1CON=C1c1ccc(Cl)c(Cl)c1)Nc1cccnc1` (stereo not drawn) [2-[3-(3,4-Dichloro-phenyl)-4,5-dihydro-isoxazol-4-yl]-N-pyridin-3-yl-acetamide], 77.2%.
With `O=C(O)Cc1conc1-c1ccc(Cl)c(Cl)c1` [[3-(3,4-Dichloro-phenyl)-isoxazol-4-yl]-acetic acid] the figure was 74.7%; with `COC(=O)Cc1cc(-c2ccc(Cl)c(Cl)c2)no1` [[3-(3,4-Dichloro-phenyl)-isoxazol-5-yl]-acetic acid methyl ester], 66.4%.
Regarding `Cc1cc(NC(=O)CC2CON=C2c2ccc(Cl)c(Cl)c2)on1` (stereo not drawn) [2-[3-(3,4-Dichloro-phenyl)-4,5-dihydro-isoxazol-4-yl]-N-(3-methyl-isoxazol-5-yl)-acetamide], the inhibition at 10 µM came to 64%.
`Cc1ncc(NC(=O)CC2CON=C2c2ccc(Cl)c(Cl)c2)cn1` (stereo not drawn) [2-[3-(3,4-Dichloro-phenyl)-4,5-dihydro-isoxazol-4-yl]-N-(2-methyl-pyrimidin-5-yl)-acetamide]: the inhibition at 10 µM was found to be 81.2%.
On to `COC(=O)CC1CON=C1c1ccc(Cl)c(Cl)c1` (stereo not drawn) [[3-(3,4-Dichloro-phenyl)-4,5-dihydro-isoxazol-4-yl]-acetic acid methyl ester], for which the inhibition at 10 µM was 102%.
The figure for `CCOC(=O)Cc1cc(-c2ccc(Cl)c(Cl)c2)no1` [[3-(3,4-Dichloro-phenyl)-isoxazol-5-yl]-acetic acid ethyl ester] is 60.8%; for `CC1ON=C(c2ccc(Cl)c(Cl)c2)C1CC(=O)O` (stereo not drawn) [[3-(3,4-Dichloro-phenyl)-5-methyl-4,5-dihydro-isoxazol-4-yl]-acetic acid] it is 84.5%; for `O=C(O)Cc1cc(-c2ccc(Cl)c(Cl)c2)no1` [[3-(3,4-Dichloro-phenyl)-isoxazol-5-yl]-acetic acid] it is 74.5%.
With `O=C(O)CC1CC(c2ccc(Cl)c(Cl)c2)=NO1` (stereo not drawn) [[3-(3,4-Dichloro-phenyl)-4,5-dihydro-isoxazol-5-yl]-acetic acid] the figure was 93.3%.
